Results as given in PubChem BioAssay AID248 (DTP/NCI, 2004).
Values joined by “and” are separate entries in the source; they are usually repeats but may differ in a detail not shown here. Equal values may be shown once. Toxic doses and inconclusive results are not listed. No stated cut-off is given here; in the data, active means T/C of 150% or more; inactive means T/C below 125%.

Tested on: L1210 leukemia ip in BDF1 mice, survival T/C
Assay: NCI In Vivo Anticancer Drug Screen. Data for tumor model L1210 Leukemia (intraperitoneal) in B6D2F1 (BDF1) mice
Conditions: endpoint: mean survival time, higher = longer survival
Outline: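 Survival endpoint. Drug-treated group vs vehicle group, expressed as T divided by C. Tumor passaged by transplantation.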

[1] = dose: 25.0 mg/kg/injection, schedule: Q01DX009 (ip), vehicle: saline
[2] = dose: 100.0 mg/kg/injection, schedule: Q01DX001 (ip), vehicle: Klucel (hydroxypropylcellulose) (HPC)
[3] = dose: 200.0 mg/kg/injection, schedule: Q01DX001 (ip), vehicle: Klucel (hydroxypropylcellulose) (HPC)
[4] = dose: 400.0 mg/kg/injection, schedule: Q01DX001 (ip), vehicle: Klucel (hydroxypropylcellulose) (HPC)
[5] = dose: 100.0 mg/kg/injection, schedule: Q04DX003 (ip), vehicle: saline with Tween-80
[6] = dose: 200.0 mg/kg/injection, schedule: Q04DX003 (ip), vehicle: saline with Tween-80
[7] = dose: 400.0 mg/kg/injection, schedule: Q04DX003 (ip), vehicle: saline with Tween-80
[8] = dose: 100.0 mg/kg/injection, schedule: Q01DX009 (ip), vehicle: saline
[9] = dose: 100.0 mg/kg/injection, schedule: Q04DX003 (ip), vehicle: Klucel (hydroxypropylcellulose) (HPC)
[10] = dose: 200.0 mg/kg/injection, schedule: Q04DX003 (ip), vehicle: Klucel (hydroxypropylcellulose) (HPC)
[11] = dose: 400.0 mg/kg/injection, schedule: Q04DX003 (ip), vehicle: Klucel (hydroxypropylcellulose) (HPC)
[12] = dose: 200.0 mg/kg/injection, schedule: Q01DX009 (ip), vehicle: Klucel (hydroxypropylcellulose) (HPC)
[13] = dose: 400.0 mg/kg/injection, schedule: Q01DX009 (ip), vehicle: Klucel (hydroxypropylcellulose) (HPC)
[14] = dose: 25.0 mg/kg/injection, schedule: Q01DX009 (ip), vehicle: saline with Tween-80
[15] = dose: 50.0 mg/kg/injection, schedule: Q01DX009 (ip), vehicle: saline with Tween-80

Measured: T/C

CC(C)(C)C([NH-])=O.CC(C)(C)C([NH-])=O.[Cl][Pt+2][Cl]
inactive: dose: 6.25 mg/kg/injection, schedule: Q01DX009 (ip), vehicle: saline 86 % of control | dose: 12.5 mg/kg/injection, schedule: Q01DX009 (ip), vehicle: saline 94 % of control | dose: 12.5 mg/kg/injection, schedule: Q04DX003 (ip), vehicle: saline 116 % of control | [1] 101 % of control | dose: 25.0 mg/kg/injection, schedule: Q04DX003 (ip), vehicle: saline 102 % of control | dose: 50.0 mg/kg/injection, schedule: Q04DX003 (ip), vehicle: saline 109 % of control

CCc1ccc(CC(=S)N2CCOCC2)cc1
inactive: dose: 100.0 mg/kg/injection, schedule: Q01DX001 (ip), vehicle: carboxymethylcellulose (CMC) 101 % of control | dose: 200.0 mg/kg/injection, schedule: Q01DX001 (ip), vehicle: carboxymethylcellulose (CMC) 95 % of control | dose: 400.0 mg/kg/injection, schedule: Q01DX001 (ip), vehicle: carboxymethylcellulose (CMC) 109 % of control

O=[N+]([O-])c1ccc(C(=NO)c2ccc([N+](=O)[O-])cc2)cc1
inactive: [2] 103 % of control | [3] 109 % of control | [4] 101 % of control

COC(=O)C1C2OC(C(Br)C2Br)C1C(=O)O (centres undefined)
inactive: [5] 100 % of control | [6] 98 % of control | [7] 96 % of control

COc1cccc2ccccc12
inactive: [5] 96 % of control | [6] 94 % of control

O=S(=O)(c1ccccc1)C(Cl)c1cccc(Cl)c1 (centres undefined)
inactive: dose: 100.0 mg/kg/injection, schedule: Q04DX002 (ip), vehicle: Klucel (hydroxypropylcellulose) (HPC) 105 % of control | dose: 200.0 mg/kg/injection, schedule: Q04DX002 (ip), vehicle: Klucel (hydroxypropylcellulose) (HPC) 101 % of control | dose: 400.0 mg/kg/injection, schedule: Q04DX002 (ip), vehicle: Klucel (hydroxypropylcellulose) (HPC) 122 % of control

Nc1cccc(C(F)(F)F)c1
inactive: [1] 103 % of control | dose: 50.0 mg/kg/injection, schedule: Q01DX009 (ip), vehicle: saline 103 % of control | [8] 94 % of control and 88 % of control

O=S(=O)(O)c1ccc(O)c2ncccc12
inactive: dose: 100.0 mg/kg/injection, schedule: Q04DX003 (ip), vehicle: saline 95 % of control | dose: 200.0 mg/kg/injection, schedule: Q04DX003 (ip), vehicle: saline 101 % of control | dose: 400.0 mg/kg/injection, schedule: Q04DX003 (ip), vehicle: saline 101 % of control

Oc1ccc([S+](c2ccc(O)cc2)c2ccc(O)cc2)cc1
inactive: dose: 5.0 mg/kg/injection, schedule: Q01DX001 (ip), vehicle: saline 96 % of control | dose: 10.0 mg/kg/injection, schedule: Q01DX001 (ip), vehicle: saline 96 % of control | dose: 20.0 mg/kg/injection, schedule: Q01DX001 (ip), vehicle: saline 107 % of control | dose: 40.0 mg/kg/injection, schedule: Q01DX001 (ip), vehicle: saline 105 % of control

CCc1[nH]c(=S)ncc1-c1ccc([N+](=O)[O-])cc1O
inactive: [9] 93 % of control | [10] 93 % of control | [11] 106 % of control

NCCCCCCNC(=O)CCCCC(=O)NCCCCCCN
inactive: dose: 8.0 mg/kg/injection, schedule: Q01DX Z (ip), vehicle: water 88 % of control | dose: 16.0 mg/kg/injection, schedule: Q01DX Z (ip), vehicle: water 86 % of control | dose: 32.0 mg/kg/injection, schedule: Q01DX Z (ip), vehicle: water 89 % of control | dose: 64.0 mg/kg/injection, schedule: Q01DX Z (ip), vehicle: saline 90 % of control | dose: 64.0 mg/kg/injection, schedule: Q01DX Z (ip), vehicle: water 91 % of control

COc1ccc(OC)c(NC(=O)Nc2ccc(Nc3ccccc3)cc2)c1
inactive: [10] 93 % of control | [11] 100 % of control

O=C(NCN1C(=O)c2ccccc2C1=O)NCN1C(=O)c2ccccc2C1=O
inactive: dose: 100.0 mg/kg/injection, schedule: Q01DX009 (ip), vehicle: Klucel (hydroxypropylcellulose) (HPC) 95 % of control | [12] 102 % of control | [13] 92 % of control

O=C(NCNC(=O)c1ccccc1)c1ccccc1
inactive: [9] 100 % of control | [12] 103 % of control | [10] 90 % of control | [13] 92 % of control | [11] 103 % of control

CC(C)c1ccc(C(=O)CCCCl)cc1
inactive: [5] 97 % of control | [6] 102 % of control | [7] 92 % of control

O=C1OC2CCCC1C2 (centres undefined)
inactive: dose: 50.0 mg/kg/injection, schedule: Q01DX001 (ip), vehicle: saline with Tween-80 104 % of control | dose: 100.0 mg/kg/injection, schedule: Q01DX001 (ip), vehicle: saline with Tween-80 100 % of control | dose: 200.0 mg/kg/injection, schedule: Q01DX001 (ip), vehicle: saline with Tween-80 100 % of control

O=C1CCN(CCCN2CCC(=O)N(Cc3ccccc3)C2=S)C(=S)N1Cc1ccccc1
inactive: dose: 100.0 mg/kg/injection, schedule: Q04DX002 (ip), vehicle: DMSO 87 % of control | dose: 200.0 mg/kg/injection, schedule: Q04DX002 (ip), vehicle: DMSO 104 % of control | dose: 400.0 mg/kg/injection, schedule: Q04DX002 (ip), vehicle: DMSO 101 % of control

CC(=O)OCC1OC(N=C=S)C(OC(C)=O)C(OC(C)=O)C1OC(C)=O (centres undefined)
inactive: dose: 12.5 mg/kg/injection, schedule: Q01DX009 (ip), vehicle: saline with Tween-80 97 % of control | [14] 100 % of control | [15] 93 % of control

O=C(O)c1ccccc1[N+](=O)[O-]
inactive: [2] 99 % of control | [3] 97 % of control | [4] 96 % of control

CCOC1C(=O)c2ccccc2CCN1S(=O)(=O)c1ccc(C)cc1 (centres undefined)
inactive: dose: 100.0 mg/kg/injection, schedule: Q01DX001 (ip), vehicle: saline 96 % of control | [8] 101 % of control | dose: 200.0 mg/kg/injection, schedule: Q01DX001 (ip), vehicle: saline 100 % of control | dose: 200.0 mg/kg/injection, schedule: Q01DX009 (ip), vehicle: saline 95 % of control | dose: 400.0 mg/kg/injection, schedule: Q01DX001 (ip), vehicle: saline 103 % of control | dose: 400.0 mg/kg/injection, schedule: Q01DX009 (ip), vehicle: saline 94 % of control

Clc1ccc(OCc2sc3ccc(Br)cc3c2CN2CCOCC2)cc1
inactive: dose: 75.0 mg/kg/injection, schedule: Q01DX009 (ip), vehicle: Klucel (hydroxypropylcellulose) (HPC) 100 % of control | [9] 94 % of control | dose: 150.0 mg/kg/injection, schedule: Q01DX009 (ip), vehicle: Klucel (hydroxypropylcellulose) (HPC) 105 % of control | [10] 96 % of control | dose: 300.0 mg/kg/injection, schedule: Q01DX009 (ip), vehicle: Klucel (hydroxypropylcellulose) (HPC) 95 % of control | [11] 89 % of control

Cc1cc(C)c(CN)cc1CN
inactive: [14] 95 % of control | [15] 98 % of control | dose: 100.0 mg/kg/injection, schedule: Q01DX009 (ip), vehicle: saline with Tween-80 100 % of control | [5] 97 % of control
